Laboratory results taken from patent publication US11802133B2, “Heterocyclic compounds as monoacylglycerol lipase inhibitors” (Hoffmann-La Roche Inc., priority 2018, dated 2023).
pIC50: −log10 of the molar value.

Biological target: MAGL (Homo sapiens (Human), UniProt Q99685)
Test: 2-AG assay: MAGL inhibitory activity by hydrolysis of 2-arachidonoylglycerol to arachidonic acid (mass spectrometry)
Type: biochemical
Settings: measured in 2-AG assay (footnote [b]); 8 μM 2-arachidonoylglycerol
Experimental: Alternatively, compounds were profiled for MAGL inhibitory activity by determining the enzymatic activity by following the hydrolysis of the natural substrate 2-arachidonoylglycerol resulting in arachidonic acid, which can be followed by mass spectrometry. This assay is hereinafter abbreviated “2-AG assay”.
A C18 SPE cartridge (G9205A) was used in an acetonitrile/water liquid setup. […] The activity of the compounds was calculated based on the ratio of intensities [arachidonic acid/d8-arachidonic acid].

Sequence of MAGL (Q99685 whole entry, species assumed): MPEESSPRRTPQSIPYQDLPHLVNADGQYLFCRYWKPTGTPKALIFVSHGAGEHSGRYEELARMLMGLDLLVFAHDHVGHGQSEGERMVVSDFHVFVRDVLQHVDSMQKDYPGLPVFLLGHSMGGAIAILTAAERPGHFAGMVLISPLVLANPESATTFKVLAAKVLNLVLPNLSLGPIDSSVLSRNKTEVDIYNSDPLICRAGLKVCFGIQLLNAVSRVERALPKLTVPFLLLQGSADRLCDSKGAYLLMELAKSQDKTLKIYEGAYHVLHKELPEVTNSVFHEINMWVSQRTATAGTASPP

Compound | pIC50
O=C1CO[C@H]2CCN(C(=O)N3CC(OCc4ccc(Cl)cc4Cl)C3)C[C@H]2N1 [Example 87] | 8.22
COc1cc(COC2CN(C(=O)N3CC[C@@H]4OCC(=O)N[C@@H]4C3)C2)ccc1C(F)(F)F [Example 88] | 8.30
O=C1CO[C@H]2CCN(C(=O)N3CCC(COc4cccc(Cl)c4)C3)C[C@H]2N1 (some centres unmarked) [Example 90] | 6.77
O=C1CO[C@H]2CCN(C(=O)N3CCC(COc4ccccc4Cl)C3)C[C@H]2N1 (some centres unmarked) [Example 91] | 7.00
O=C1CO[C@H]2CCN(C(=O)N3CCC(Oc4ccc(Cl)c(N5CCOCC5)c4)CC3)C[C@H]2N1 [Example 121] | 6.82
O=C1CO[C@H]2CCN(C(=O)N3CCC(Cc4nc5ccncc5o4)CC3)C[C@H]2N1 [Example 124] | 5.99
Cc1ccc(COC2CN(C(=O)N3CC[C@@H]4OCC(=O)N[C@@H]4C3)C2)c(C(F)(F)F)c1 [Example 217] | 8.00
COc1cccc(C(F)(F)F)c1CCC1CN(C(=O)N2CC[C@@H]3OCC(=O)N[C@@H]3C2)C1 [Example 218] | 8.52
Cc1ccc(CCC2CN(C(=O)N3CC[C@@H]4OCC(=O)N[C@@H]4C3)C2)c(C(F)(F)F)c1 [Example 219] | 8.70
CC(=O)c1cc(C(F)(F)F)ccc1CCC1CN(C(=O)N2CC[C@@H]3OCC(=O)N[C@@H]3C2)C1 [Example 220] | 8.52
O=C1CO[C@H]2CCN(C(=O)N3CC(COc4cc(C(F)(F)F)cc(F)n4)C3)C[C@H]2N1 [Example 222, (4aR,8aS)-6-[3-[[6-Fluoro-4-(trifluoromethyl)-2-pyridyl]oxymethyl]azetidine-1-carbonyl]-4,4a,5,7,8,8a-hexahydropyrido[4,3-b][1,4]oxazin-3-one] | 6.84
O=C1CO[C@H]2CCN(C(=O)N3CC(COc4ccc(C(F)(F)F)c(F)n4)C3)C[C@H]2N1 [Example 223, (4aR,8aS)-6-[3-[[6-Fluoro-5-(trifluoromethyl)-2-pyridyl]oxymethyl]azetidine-1-carbonyl]-4,4a,5,7,8,8a-hexahydropyrido[4,3-b][1,4]oxazin-3-one] | 7.12
O=C1CO[C@H]2CCN(C(=O)N3CC(OCc4ccc(Cl)c(Cl)c4)C3)C[C@H]2N1 [Example 224] | 8.52
O=C1CO[C@H]2CCN(C(=O)N3CC(OCc4cc(Cl)ccc4Cl)C3)C[C@H]2N1 [Example 225] | 8.15
Cc1cc(OC[C@@H]2CCN(C(=O)N3CC[C@@H]4OCC(=O)N[C@@H]4C3)C[C@@H]2C)cnc1C(F)(F)F [Example 231] | 8.30
Cc1cc(OC[C@H]2CCN(C(=O)N3CC[C@@H]4OCC(=O)N[C@@H]4C3)C[C@H]2C)cnc1C(F)(F)F [Example 232] | 7.21
O=C1CO[C@H]2CCN(C(=O)N3CC(OCc4cc(C(F)(F)F)c(C(F)(F)F)cn4)C3)C[C@H]2N1 [Example 234] | 8.70
O=C1CO[C@H]2CCN(C(=O)N3CC(OCc4ccc(S(F)(F)(F)(F)F)cc4F)C3)C[C@H]2N1 [Example 240] | 7.80
O=C1CO[C@H]2CCN(C(=O)N3CC(OCC4(c5ccc(Cl)cc5Cl)CC4)C3)C[C@H]2N1 [Example 241] | 7.82
O=C1CO[C@H]2CCN(C(=O)N3CC(OCc4cc(C(F)(F)F)cc(Oc5ccc(F)cc5)n4)C3)C[C@H]2N1 [Example 242] | 7.92
O=C1CO[C@H]2CCN(C(=O)N3CC(OCc4ccc(C(F)(F)F)c(Oc5ccc(F)cc5)n4)C3)C[C@H]2N1 [Example 243] | 8.00
O=C1CO[C@H]2CCN(C(=O)N3CC(OCc4nc(-c5ccc(F)cc5)cs4)C3)C[C@H]2N1 [Example 244] | 7.52
Cc1c(COC2CN(C(=O)N3CC[C@@H]4OCC(=O)N[C@@H]4C3)C2)cccc1C(F)(F)F [Example 250] | 8.10
Cc1cc(OC(F)(F)F)ccc1COC1CN(C(=O)N2CC[C@@H]3OCC(=O)N[C@@H]3C2)C1 [Example 251] | 8.30
Cc1cc(OC(F)(F)F)ccc1COC1CN(C(=O)N2CC[C@@H]3OCC(=O)N[C@@H]3C2)C1C (some centres unmarked) [Example 252] | 8.30
Cc1c(COC2CN(C(=O)N3CC[C@@H]4OCC(=O)N[C@@H]4C3)C2C)cccc1C(F)(F)F (some centres unmarked) [Example 253] | 8.00
O=C1CO[C@H]2CCN(C(=O)N3CC(Oc4ccc(Cl)c(C5CC5)c4)C3)C[C@H]2N1 [Example 256] | 7.96
O=C1CO[C@H]2CCN(C(=O)N3CC(Oc4cccc(Br)c4Cl)C3)C[C@H]2N1 [Example 258] | 7.32
O=C1CO[C@H]2CCN(C(=O)N3CC(Oc4cccc(C5CC5)c4Cl)C3)C[C@H]2N1 [Example 259] | 7.82

Results, then the molecule that gave them:

pIC50 | Compound
7.47 | Cc1cc(OCC2CCN(C(=O)N3CC[C@@H]4OCC(=O)N[C@@H]4C3)CC2)cnc1C(F)(F)F [Example 89]
7.85 | O=C1CO[C@H]2CCN(C(=O)N3CCC(Cc4ccc(C(F)(F)F)cc4F)CC3)C[C@H]2N1 [Example 92]
6.88 | O=C1CO[C@H]2CCN(C(=O)N3CC(Oc4ccc(C(F)(F)F)cc4)C3)C[C@H]2N1 [Example 118]
7.85 | O=C1CO[C@H]2CCN(C(=O)N3CCC(Oc4ccc(Cl)c(C(F)(F)F)c4)CC3)C[C@H]2N1 [Example 119]
8.15 | O=C1CO[C@H]2CCN(C(=O)N3CCC(Oc4ccc(Cl)c(C5CC5)c4)CC3)C[C@H]2N1 [Example 120]
8.10 | Cc1cc(C(F)(F)F)ccc1OC1CCN(C(=O)N2CC[C@@H]3OCC(=O)N[C@@H]3C2)CC1 [Example 122]
7.09 | N#Cc1cc(C(F)(F)F)ccc1OC1CCN(C(=O)N2CC[C@@H]3OCC(=O)N[C@@H]3C2)CC1 [Example 123]
7.23 | O=C1CO[C@H]2CCN(C(=O)N3CCCC(COc4ccc(F)cc4Cl)CC3)C[C@H]2N1 (some centres unmarked) [Example 140]
7.40 | O=C1CO[C@H]2CCN(C(=O)N3CCCC(COc4ccc(F)cc4Cl)CC3)C[C@H]2N1 (some centres unmarked) [Example 141]
7.12 | O=C1CO[C@H]2CCN(C(=O)N3CCCC(Cc4ccc(C(F)(F)F)cc4)CC3)C[C@H]2N1 (some centres unmarked) [Example 142]
6.62 | O=C1CO[C@H]2CCN(C(=O)N3CCC(Oc4cc(-n5cccn5)cc(C(F)(F)F)c4)CC3)C[C@H]2N1 [Example 201]
7.27 | O=C1CO[C@H]2CCN(C(=O)N3CCC(Cc4ccc(C(F)(F)F)cc4OCC(F)(F)F)CC3)C[C@H]2N1 [Example 202]
6.06 | O=C1CO[C@H]2CCN(C(=O)N3CCC(Oc4cc(-n5cncn5)cc(C(F)(F)F)c4)CC3)C[C@H]2N1 [Example 203]
7.00 | O=C1CO[C@H]2CCN(C(=O)N3CC(Oc4ccc(Cl)c(C(F)(F)F)c4)C3)C[C@H]2N1 [Example 204]
7.07 | O=C1CO[C@H]2CCN(C(=O)N3CCC(Oc4ccc(Cl)c(-n5cccn5)c4)CC3)C[C@H]2N1 [Example 205]
7.64 | O=C1CO[C@H]2CCN(C(=O)N3CCC(Oc4ccc(C(F)(F)F)c(N5CCOCC5)c4)CC3)C[C@H]2N1 [Example 206]
7.30 | O=C1CO[C@H]2CCN(C(=O)N3CCC(Oc4ccc(Cl)c(-n5cncn5)c4)CC3)C[C@H]2N1 [Example 207]

pIC50 | Compound
8.52 | O=C1CO[C@H]2CCN(C(=O)N3CCC(Oc4ccc(C(F)(F)F)c(C5CC5)c4)CC3)C[C@H]2N1 [Example 208]
7.13 | O=C1CO[C@H]2CCN(C(=O)N3CCC(Oc4ccc(C(F)(F)F)c(-n5cccn5)c4)CC3)C[C@H]2N1 [Example 209]
7.10 | O=C1CO[C@H]2CCN(C(=O)N3CCC(Oc4ccc(Cl)cc4)CC3)C[C@H]2N1 [Example 210]
7.77 | O=C1CO[C@H]2CCN(C(=O)N3CCC(Cc4c(F)cc(C(F)(F)F)cc4F)CC3)C[C@H]2N1 [Example 211]
8.52 | O=C1CO[C@H]2CCN(C(=O)N3CCC(Oc4ccc(Cl)c(-c5ccc(Cl)cc5)c4F)CC3)C[C@H]2N1 [Example 212]
7.01 | O=C1CO[C@H]2CCN(C(=O)N3CC(Oc4ccc(C(F)(F)F)cc4Cl)C3)C[C@H]2N1 [Example 213]
7.14 | O=C1CO[C@H]2CCN(C(=O)N3CC(OCc4ccc(C(F)(F)F)cn4)C3)C[C@H]2N1 [Example 230]
5.77 | O=C1CO[C@H]2CCN(C(=O)N3CCC(OCc4ccc(C(F)(F)F)cc4F)(C(F)(F)F)C3)C[C@H]2N1 (some centres unmarked) [Example 245]
6.00 | CC1C(Oc2cc(C(F)(F)F)ccc2Br)CCN1C(=O)N1CC[C@@H]2OCC(=O)N[C@@H]2C1 (some centres unmarked) [Example 246]
5.96 | C[C@@H]1[C@@H](Oc2cc(C(F)(F)F)ccc2Br)CCN1C(=O)N1CC[C@@H]2OCC(=O)N[C@@H]2C1 [Example 247]
6.22 | C[C@H]1[C@H](Oc2cc(C(F)(F)F)ccc2Br)CCN1C(=O)N1CC[C@@H]2OCC(=O)N[C@@H]2C1 [Example 248]
8.30 | O=C1CO[C@H]2CCN(C(=O)N3CC(OCc4ccc(C(F)(F)F)cc4C(F)(F)F)C3)C[C@H]2N1 [Example 249]
7.19 | O=C1CO[C@H]2CCN(C(=O)N3CCC(Oc4ccc(C(F)(F)F)cc4F)CC3)C[C@H]2N1 [Example 254]
8.00 | O=C1CO[C@H]2CCN(C(=O)N3CCC(Oc4ccc(C(F)(F)F)c(Cl)c4)CC3)C[C@H]2N1 [Example 255]
7.85 | O=C1CO[C@H]2CCN(C(=O)N3CCC(Oc4cccc(C(F)(F)F)c4Cl)CC3)C[C@H]2N1 [Example 257]
7.74 | O=C1CO[C@H]2CCN(C(=O)N3CC(Oc4ccc(C(F)(F)F)c(C5CC5)c4)C3)C[C@H]2N1 [Example 260]
